Measured values reported in patent publication US12378224B2 (Dong-A Socio Holdings Co., Ltd., priority 2016, dated 2025).

Each compound was assayed against human c-MER catalytic domain (Homo sapiens (Human), UniProt Q12866) (assay: TR-FRET Kinase Activity Biochemical Assay (LanthaScreen)). Settings: 10 uM ATP, 1 hour, kinase not given.
Excerpt: For the SAR (structure-activity relationship) and compound screening, LanthaScreen™ TR-FRET (Time-Resolved fluorescence energy transfer) assay was employed using the phospho-tyrosine specific Terbium (Tb)-labelded antibody with a fluorescein labeled poly-GT (glutamate-tyrosine) as a substrate. Upon excitation at 340 nm by UV, the energy from Tb donor of the antibody is transferred to the fluorescein of the phosphorylated poly GT substrate, and fluorescein emits light at 520 nm. The ratio between the intensity of […] was used to quantify the level of kinase activity. The recombinant proteins of human c-MER and AXL catalytic domains, Fluorescein-labeled poly-GT substrate, Tb-labeled anti-phosphorylated tyrosine antibodies, the kinase assay buffer, and 0.5M EDTA solution were purchased (Life technologies, USA). The TR-FRET assays were carried out in the white low volume 384-well plate (Corning, USA). […] 10 mM EDTA was added to terminate the enzyme reaction, and the level of phosphorylation of poly-GT substrate was determined following 30 min incubation with 2 nM Tb-labeled antibody. The fluorescence intensity was measured with Envision™ plate reader (PerkinElmer, USA).

Sequence of human c-MER catalytic domain (Q12866 587-858): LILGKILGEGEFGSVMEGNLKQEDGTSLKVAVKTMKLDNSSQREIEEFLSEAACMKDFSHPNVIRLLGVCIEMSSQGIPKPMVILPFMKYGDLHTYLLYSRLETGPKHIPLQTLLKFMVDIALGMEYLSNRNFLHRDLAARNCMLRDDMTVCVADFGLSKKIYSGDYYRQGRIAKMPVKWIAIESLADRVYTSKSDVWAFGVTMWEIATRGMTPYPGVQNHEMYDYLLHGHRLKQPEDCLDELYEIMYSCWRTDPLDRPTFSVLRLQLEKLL

Structure (SMILES) | IC50 [nM]
CC(C)(c1ccc(-c2cnc(N)c(C(=O)N[C@@H]3CCN(C(=O)c4ccc(-c5ccccc5)cc4)C3)c2)cc1)N1CCNCC1 [Example 564, (R)—N-(1-([1,1′-biphenyl]-4-carbonyl)pyrrolidin-3-yl)-2-amino-5-(4-(2-(piperazin-1-yl)propan-2-yl)phenyl)nicotinamide] | < 10
COc1ccsc1-c1ccc(C(=O)N2CC[C@@H](NC(=O)c3cc(-c4cnn(C)c4)cnc3N)C2)cc1 [Example 524, (R)-2-amino-N-(1-(4-(3-methoxythiophen-2-yl)benzoyl)pyrrolidin-3-yl)-5-(1-methyl-1H-pyrazol-4-yl)nicotinamide] | 10 to 100
Cn1cc(-c2cnc(N)c(C(=O)N[C@@H]3CCN(C(=O)Oc4cccc(-c5cnn(Cc6ccccc6)c5)c4)C3)c2)cn1 [Example 283, 3-(1-benzyl-1H-pyrazol-4-yl)phenyl (R)-3-(2-amino-5-(1-methyl-1H-pyrazol-4-yl)nicotinamido)pyrrolidine-1-carboxylate] | 100 to 1000
Cn1cc(-c2cnc(N)c(C(=O)N[C@@H]3CCN(Cc4ccc(F)c(-c5ccccc5)c4)C3)c2)cn1 [Example 249, (R)-2-amino-N-(1-((6-fluoro-[1,1′-biphenyl]-3-yl)methyl)pyrrolidin-3-yl)-5-(1-methyl-1H-pyrazol-4-yl)nicotinamide] | 100 to 1000
CN(C)CCCOc1ccc2ccc(OC(=O)N3CC[C@@H](NC(=O)c4cc(-c5cnn(C)c5)cnc4N)C3)cc2c1 [Example 295, 7-(3-(dimethylamino)propoxy)naphthalen-2-yl (R)-3-(2-amino-5-(1-methyl-1H-pyrazol-4-yl)nicotinamido)pyrrolidine-1-carboxylate] | 10 to 100
CCOC(=O)C1CN(C(=O)c2ccc(-c3ccc(F)cc3Cl)cc2)CC1NC(=O)c1cc(-c2cnn(C)c2)cnc1N (stereo not drawn) [Example 690, ethyl 4-(2-amino-5-(1-methyl-1H-pyrazol-4-yl)nicotinamido)-1-(2′-chloro-4′-fluoro-[1,1′-biphenyl]-4-carbonyl)pyrrolidine-3-carboxylate] | > 1000
Cn1cc(-c2cnc(N)c(C(=O)N[C@H]3CCN(C(=O)c4ccc(-c5ccccc5)cc4)C3)c2)cn1 [Example 346, (S)—N-(1-([1,1′-biphenyl]-4-carbonyl)pyrrolidin-3-yl)-2-amino-5-(1-methyl-1H-pyrazol-4-yl)nicotinamide] | > 1000
Cn1cc(-c2cnc(N)c(C(=O)N[C@@H]3CCN(C(=O)c4ccc(-c5cccnc5)cc4)C3)c2)cn1 [Example 356, (R)-2-amino-5-(1-methyl-1H-pyrazol-4-yl)-N-(1-(4-(pyridin-3-yl)benzoyl)pyrrolidin-3-yl)nicotinamide] | 100 to 1000
Nc1ncc(-c2ccc(CN3CCC(O)CC3)cc2)cc1C(=O)N[C@@H]1CCN(C(=O)Nc2cccc(-c3ccccc3)c2)C1 [Example 39, (R)—N-(1-([1,1′-biphenyl]-3-ylcarbamoyl)pyrrolidin-3-yl)-2-amino-5-(4-((4-hydroxypiperidin-1-yl)methyl)phenyl)nicotinamide] | 10 to 100
CN1CCN(Cc2cccc(N3CC[C@H](OC(=O)N4CC[C@@H](NC(=O)c5cc(-c6cnn(C)c6)cnc5N)C4)C3)c2)CC1 [Example 626, (S)-1-(3-((4-methylpiperazin-1-yl)methyl)phenyl)pyrrolidin-3-yl (R)-3-(2-amino-5-(1-methyl-1H-pyrazol-4-yl)nicotinamido)pyrrolidine-1-carboxylate] | > 1000
Cn1cc(-c2cnc(N)c(C(=O)N[C@@H]3CCN(C(=O)Oc4cccc(OCC5CCNCC5)c4)C3)c2)cn1 [Example 304] | 100 to 1000
Cn1cc(-c2cnc(N)c(C(=O)N[C@@H]3CCN(C(=O)Oc4cccc(-c5ccc(CN6CC[C@@H](N)C6)cc5)c4)C3)c2)cn1 [Example 330, 4′-(((R)-3-aminopyrrolidin-1-yl)methyl)-[1,1′-biphenyl]-3-yl (R)-3-(2-amino-5-(1-methyl-1H-pyrazol-4-yl)nicotinamido)pyrrolidine-1-carboxylate] | 10 to 100
Cc1csc(C(=O)N2CC[C@@H](NC(=O)c3cc(-c4cnn(C)c4)cnc3N)C2)c1 [Example 409, (R)-2-amino-5-(1-methyl-1H-pyrazol-4-yl)-N-(1-(4-methylthiophene-2-carbonyl)pyrrolidin-3-yl)nicotinamide] | > 1000
Cn1cc(-c2cnc(N)c(C(=O)N[C@@H]3CCN(C(=O)c4ccc(-c5cnn(C6CCN(C(=O)OC(C)(C)C)CC6)c5)cc4)C3)c2)cn1 [Example 511, tert-butyl (R)-4-(4-(4-(3-(2-amino-5-(1-methyl-1H-pyrazol-4-yl)nicotinamido)pyrrolidine-1-carbonyl)phenyl)-1H-pyrazol-1-yl)piperidine-1-carboxylate] | 100 to 1000
Cn1cc(-c2cnc(N)c(C(=O)N[C@@H]3CCN(C(=O)Oc4cccc(-c5ccc(CN6CCC[C@H](N)C6)cc5)c4)C3)c2)cn1 [Example 332, 4′-(((S)-3-aminopiperidin-1-yl)methyl)-[1,1′-biphenyl]-3-yl (R)-3-(2-amino-5-(1-methyl-1H-pyrazol-4-yl)nicotinamido)pyrrolidine-1-carboxylate] | 10 to 100
CN1CCN(Cc2ccc(-c3cnc(N)c(C(=O)N[C@@H]4CCN(C(=O)Oc5cccc(-c6ccccc6)c5)C4)c3)cc2)CC1 [Example 82, [1,1′-biphenyl]-3-yl (R)-3-(2-amino-5-(4-((4-methylpiperazin-1-yl)methyl)phenyl)nicotinamido)pyrrolidine-1-carboxylate] | 10 to 100
CN1CCN(Cc2ccc(-c3cccc(CCN4CC[C@@H](NC(=O)c5cc(-c6cnn(C)c6)cnc5N)C4)c3)cc2)CC1 [Example 253, (R)-2-amino-5-(1-methyl-1H-pyrazol-4-yl)-N-(1-(2-(4′-((4-methylpiperazin-1-yl)methyl)-[1,1′-biphenyl]-3-yl)ethyl)pyrrolidin-3-yl)nicotinamide] | > 1000
Cc1nn(-c2ccc(N)cc2)c(C)c1-c1ccc(C(=O)N2CC[C@@H](NC(=O)c3cc(-c4cnn(C)c4)cnc3N)C2)cc1 [Example 520, (R)-2-amino-N-(1-(4-(1-(4-aminophenyl)-3,5-dimethyl-1H-pyrazol-4-yl)benzoyl)pyrrolidin-3-yl)-5-(1-methyl-1H-pyrazol-4-yl)nicotinamide] | 100 to 1000
Cn1cc(-c2cnc(N)c(C(=O)N[C@@H]3CCN(C(=O)O[C@@H]4CCN(c5ccccc5)C4)C3)c2)cn1 [Example 127, (R)-1-phenylpyrrolidin-3-yl (R)-3-(2-amino-5-(1-methyl-1H-pyrazol-4-yl)nicotinamido)pyrrolidine-1-carboxylate] | > 1000

Other lines, results leading:

IC50 [nM] | Structure (SMILES)
100 to 1000 | CN(C)CCCNc1ncc(-c2cnn(C)c2)cc1C(=O)N[C@@H]1CCN(C(=O)c2ccc(-c3ccc(OCCCN(C)C)cc3)cc2)C1 [Example 848, (R)—N-(1-(4′-(3-(dimethylamino)propoxy)-[1,1′-biphenyl]-4-carbonyl)pyrrolidin-3-yl)-2-((3-(dimethylamino)propyl)amino)-5-(1-methyl-1H-pyrazol-4-yl)nicotinamide]
10 to 100 | Cn1cc(-c2cnc(N)c(C(=O)N[C@@H]3CCN(C(=O)c4ccc(-c5ccc(O[C@H]6CCNC6)cc5)cc4)C3)c2)cn1 [Example 541, 2-amino-5-(1-methyl-1H-pyrazol-4-yl)-N—((R)-1-(4′-(((S)-pyrrolidin-3-yl)oxy)-[1,1′-biphenyl]-4-carbonyl)pyrrolidin-3-yl)nicotinamide]
10 to 100 | Nc1ncc(-c2ccc(CN3CCOCC3)cc2)cc1C(=O)N[C@@H]1CCN(C(=O)c2ccc(-c3ccccc3)cc2)C1 [Example 569, (R)—N-(1-([1,1′-biphenyl]-4-carbonyl)pyrrolidin-3-yl)-2-amino-5-(4-(morpholinomethyl)phenyl)nicotinamide]
10 to 100 | Cc1ccc(-c2ccc(C(=O)N3CC[C@@H](Nc4n[nH]c5ncc(-c6cnn(C)c6)cc45)C3)cc2)s1 [Example 615, (R)-(3-((5-(1-methyl-1H-pyrazol-4-yl)-1H-pyrazolo[3,4-b]pyridin-3-yl)amino)pyrrolidin-1-yl)(4-(5-methylthiophen-2-yl)phenyl)methanone]
10 to 100 | Cn1cc(-c2cnc(N)c(C(=O)N[C@@H]3CCN(C(=O)c4ccc(-c5ccc(F)cc5Cl)cc4)C3)n2)cn1 [Example 745, (R)-3-amino-N-(1-(2′-chloro-4′-fluoro-[1,1′-biphenyl]-4-carbonyl)pyrrolidin-3-yl)-6-(1-methyl-1H-pyrazol-4-yl)pyrazine-2-carboxamide]
100 to 1000 | Cn1cc(-c2cnc(N)c(C(=O)N[C@@H]3CCN(C(=O)c4ccc(-c5ccc(C(C)(C)N)cc5)cc4)C3)c2)cn1 [Example 801, (R)-2-amino-N-(1-(4′-(2-aminopropan-2-yl)-[1,1′-biphenyl]-4-carbonyl)pyrrolidin-3-yl)-5-(1-methyl-1H-pyrazol-4-yl)nicotinamide]
10 to 100 | Nc1ncc(-c2ccc(N3CCOCC3)cc2)cc1C(=O)N[C@@H]1CCN(C(=O)c2ccc(-c3ccc(F)cc3Cl)cc2)C1 [Example 782, (R)-2-amino-N-(1-(2′-chloro-4′-fluoro-[1,1′-biphenyl]-4-carbonyl)pyrrolidin-3-yl)-5-(4-morpholinophenyl)nicotinamide]
10 to 100 | Nc1ncc(-c2ccc(C(=O)NCCCN3CCCC3=O)cc2)cc1C(=O)N[C@@H]1CCN(C(=O)c2ccc(-c3ccccc3Cl)cc2)C1 [Example 595, (R)-2-amino-N-(1-(2′-chloro-[1,1′-biphenyl]-4-carbonyl)pyrrolidin-3-yl)-5-(4-((3-(2-oxopyrrolidin-1-yl)propyl)carbamoyl)phenyl)nicotinamide]
